Assay results reported in patent publication US20200331925A1, “HETEROCYCLIC COMPOUNDS FOR THE TREATMENT OF ABNORMAL CELLULAR PROLIFERATION” (G1 Therapeutics, Inc., priority 2018, published 2020).

How the values were obtained:
Assay type in all cases: biochemical
CDK2/Cyclin A = CDK2/Cyclin A (Homo sapiens, UniProt P24941); experiment: CDK2/Cyclin A kinase assay (Nanosyn, Caliper microfluidic); conditions: 12-point dose-response, ATP at Km (50 μM), 3 hr
Method in brief: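 Caliper microfluidic mobility-shift read-out; 0.1 nM enzyme, 50 μM ATP (Km), 1 μM peptide substrate, 3 hr incubation. 12-point dose-response in singlicate; staurosporine as reference.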

CDK5/p35 = CDK5/p35 (Homo sapiens, UniProt Q00535); experiment: CDK5/p35 kinase assay (Nanosyn, Caliper microfluidic); conditions: 12-point dose-response, ATP at Km (20 μM), 3 hr
CDK5/p35, sequence (Q00535 whole entry): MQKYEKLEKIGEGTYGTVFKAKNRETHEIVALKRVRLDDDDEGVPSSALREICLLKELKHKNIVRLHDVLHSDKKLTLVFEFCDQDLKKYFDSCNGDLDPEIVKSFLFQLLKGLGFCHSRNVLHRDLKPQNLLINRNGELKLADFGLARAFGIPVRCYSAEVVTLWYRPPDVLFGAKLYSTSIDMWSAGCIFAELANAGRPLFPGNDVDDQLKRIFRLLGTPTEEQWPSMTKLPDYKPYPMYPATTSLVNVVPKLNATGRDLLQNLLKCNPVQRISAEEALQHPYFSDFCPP
CDK5/p35, sequence (Q15078 whole entry partner): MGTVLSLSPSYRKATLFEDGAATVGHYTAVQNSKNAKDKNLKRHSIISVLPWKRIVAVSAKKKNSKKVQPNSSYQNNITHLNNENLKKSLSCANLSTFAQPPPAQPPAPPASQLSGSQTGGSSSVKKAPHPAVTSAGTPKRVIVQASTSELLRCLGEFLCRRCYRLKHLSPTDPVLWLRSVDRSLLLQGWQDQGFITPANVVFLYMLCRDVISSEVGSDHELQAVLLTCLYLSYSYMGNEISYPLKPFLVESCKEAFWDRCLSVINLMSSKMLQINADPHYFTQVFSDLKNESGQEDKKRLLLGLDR
Method in brief: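 Microfluidic mobility-shift kinase assay with 0.05 nM CDK5/p35, 20 μM ATP (Km) and 1 μM peptide substrate, 3 hr incubation. Compounds tested as 12-point dose–response in singlicate; staurosporine as reference.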

CDK2/Cyclin E = CDK2/Cyclin E (Homo sapiens, UniProt P24941); experiment: CDK2/Cyclin E kinase assay (Nanosyn, Caliper microfluidic); conditions: 12-point dose-response, ATP at Km (100 μM), 3 hr
Method in brief: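 Caliper microfluidic mobility-shift readout of phosphorylation of 1 μM substrate peptide by 0.15 nM enzyme at 100 μM ATP (stated as Km), 3 hr incubation. 12-point dose-response in singlicate, staurosporine as reference.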

CDK5/p25 = CDK5/p25 (Homo sapiens, UniProt Q00535); experiment: CDK5/p25 kinase assay (Nanosyn, Caliper microfluidic); conditions: 12-point dose-response, ATP at Km (20 μM), 3 hr
CDK5/p25, sequence (Q00535 whole entry): as the sequence (Q00535 whole entry) above
CDK5/p25, sequence (Q15078 99-307 partner limits assumed): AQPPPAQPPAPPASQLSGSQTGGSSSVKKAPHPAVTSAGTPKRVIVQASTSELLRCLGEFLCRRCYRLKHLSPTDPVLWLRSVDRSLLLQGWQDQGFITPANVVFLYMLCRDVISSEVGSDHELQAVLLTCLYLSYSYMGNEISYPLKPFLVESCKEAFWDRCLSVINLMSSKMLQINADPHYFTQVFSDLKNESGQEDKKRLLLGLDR
Method in brief: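 Caliper microfluidic mobility-shift assay, 12-point dose-response in singlicate. CDK5/p25 at 0.1 nM with 20 μM ATP (Km) and 1 μM peptide substrate. Incubation 3 hr.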

CDK3/Cyclin E = CDK3/Cyclin E (Homo sapiens, UniProt Q00526); experiment: CDK3/Cyclin E kinase assay (Nanosyn, Caliper microfluidic); conditions: 12-point dose-response, ATP at Km (400 μM), 3 hr
Method in brief: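 Caliper microfluidic mobility-shift read-out with 1 nM enzyme, 400 μM ATP (stated as Km) and 1 μM peptide substrate, 3 hr incubation. Compounds run as 12-point dose-response in singlicate.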

CDK7/Cyclin H = CDK7/Cyclin H (Homo sapiens, UniProt P50613); experiment: CDK7/Cyclin H kinase assay (Nanosyn, Caliper microfluidic); conditions: 12-point dose-response, ATP at Km (50 μM), 17 hr
CDK7/Cyclin H, sequence (P50613 whole entry): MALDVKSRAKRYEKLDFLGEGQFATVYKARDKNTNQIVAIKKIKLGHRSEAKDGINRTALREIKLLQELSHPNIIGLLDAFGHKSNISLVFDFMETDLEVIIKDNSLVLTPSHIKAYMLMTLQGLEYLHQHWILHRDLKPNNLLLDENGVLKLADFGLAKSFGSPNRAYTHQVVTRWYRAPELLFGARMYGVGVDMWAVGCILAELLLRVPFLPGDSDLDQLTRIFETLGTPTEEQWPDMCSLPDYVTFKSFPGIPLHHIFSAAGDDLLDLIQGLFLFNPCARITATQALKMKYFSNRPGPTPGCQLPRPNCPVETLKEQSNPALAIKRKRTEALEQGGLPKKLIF
CDK7/Cyclin H, sequence (P51946 whole entry partner): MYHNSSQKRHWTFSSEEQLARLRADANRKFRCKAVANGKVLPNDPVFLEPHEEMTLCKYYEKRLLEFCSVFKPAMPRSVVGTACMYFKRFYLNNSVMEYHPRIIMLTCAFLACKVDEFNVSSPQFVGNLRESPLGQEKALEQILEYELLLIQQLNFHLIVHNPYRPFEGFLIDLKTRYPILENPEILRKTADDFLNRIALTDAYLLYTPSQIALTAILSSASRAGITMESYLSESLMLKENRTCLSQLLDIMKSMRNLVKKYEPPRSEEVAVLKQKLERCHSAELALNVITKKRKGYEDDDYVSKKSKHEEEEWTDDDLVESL
CDK7/Cyclin H, sequence (P51948 whole entry partner): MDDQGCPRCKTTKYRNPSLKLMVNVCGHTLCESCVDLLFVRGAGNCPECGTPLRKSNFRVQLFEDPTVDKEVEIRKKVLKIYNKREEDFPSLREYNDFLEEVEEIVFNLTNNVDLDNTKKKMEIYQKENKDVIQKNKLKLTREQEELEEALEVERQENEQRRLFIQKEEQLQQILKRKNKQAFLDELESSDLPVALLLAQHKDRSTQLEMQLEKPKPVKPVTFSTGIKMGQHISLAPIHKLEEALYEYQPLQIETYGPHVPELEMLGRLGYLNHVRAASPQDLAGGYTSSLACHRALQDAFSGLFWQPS
Method in brief: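 Caliper microfluidic mobility-shift assay with 10 nM CDK7/Cyclin H, 50 μM ATP (Km) and 1 μM peptide substrate, incubated 17 hr. Compounds run in 12-point dose-response, singlicate.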

CDK9/Cyclin T = CDK9/Cyclin T (Homo sapiens, UniProt P50750); experiment: CDK9/Cyclin T kinase assay (Nanosyn, Caliper microfluidic); conditions: 12-point dose-response, ATP at Km (10 μM), 17 hr; Table 5
CDK9/Cyclin T, sequence (P50750 whole entry): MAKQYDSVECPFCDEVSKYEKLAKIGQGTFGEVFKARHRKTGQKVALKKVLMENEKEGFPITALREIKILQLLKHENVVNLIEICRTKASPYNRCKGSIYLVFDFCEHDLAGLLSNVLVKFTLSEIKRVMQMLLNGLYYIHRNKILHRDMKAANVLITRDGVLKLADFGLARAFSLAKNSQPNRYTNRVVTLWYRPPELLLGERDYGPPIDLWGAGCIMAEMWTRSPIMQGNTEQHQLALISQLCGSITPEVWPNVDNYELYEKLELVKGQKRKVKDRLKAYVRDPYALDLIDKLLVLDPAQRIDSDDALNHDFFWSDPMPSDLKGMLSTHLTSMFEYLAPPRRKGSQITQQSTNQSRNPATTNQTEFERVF
CDK9/Cyclin T, sequence (O60563 whole entry partner): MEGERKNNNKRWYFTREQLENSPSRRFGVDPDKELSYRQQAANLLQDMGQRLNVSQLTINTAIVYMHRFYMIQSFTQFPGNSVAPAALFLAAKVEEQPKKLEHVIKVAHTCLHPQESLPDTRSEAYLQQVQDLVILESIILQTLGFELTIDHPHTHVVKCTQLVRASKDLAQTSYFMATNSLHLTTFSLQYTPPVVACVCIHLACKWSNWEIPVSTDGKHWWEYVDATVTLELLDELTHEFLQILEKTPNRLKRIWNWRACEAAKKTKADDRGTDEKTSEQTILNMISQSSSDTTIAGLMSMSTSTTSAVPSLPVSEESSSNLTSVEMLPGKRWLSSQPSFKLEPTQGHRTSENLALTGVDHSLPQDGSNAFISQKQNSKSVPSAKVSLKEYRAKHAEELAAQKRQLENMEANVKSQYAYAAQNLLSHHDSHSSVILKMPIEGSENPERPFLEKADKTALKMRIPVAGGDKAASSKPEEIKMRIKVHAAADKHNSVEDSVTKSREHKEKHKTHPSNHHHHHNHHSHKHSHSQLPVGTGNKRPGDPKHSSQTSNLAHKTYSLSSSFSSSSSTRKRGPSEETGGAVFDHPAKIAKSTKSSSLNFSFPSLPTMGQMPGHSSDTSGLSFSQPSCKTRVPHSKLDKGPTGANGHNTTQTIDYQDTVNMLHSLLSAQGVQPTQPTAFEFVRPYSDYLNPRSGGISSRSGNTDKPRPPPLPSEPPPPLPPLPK
Method in brief: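 Caliper microfluidic mobility-shift read-out, 12-point dose-response in singlicate at ATP Km with 1 μM peptide substrate; staurosporine reference.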

CDK1/Cyclin B1 = CDK1/Cyclin B1 (Homo sapiens, UniProt P06493); experiment: CDK1/Cyclin B1 kinase assay (Nanosyn, Caliper microfluidic); conditions: 12-point dose-response, ATP at Km (40 μM), 3 hr
Method in brief: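 Mobility-shift microfluidic kinase assay, 12-point dose-response in singlicate. Conditions: 0.08 nM enzyme, 40 μM ATP (Km), 1 μM peptide substrate, 3 hr incubation; staurosporine as reference.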

CDK6/Cyclin D3 = CDK6/Cyclin D3 (Homo sapiens, UniProt Q00534); experiment: CDK6/Cyclin D3 kinase assay (Nanosyn, Caliper microfluidic); conditions: 12-point dose-response, ATP at Km (300 μM), 3 hr
CDK6/Cyclin D3, sequence (Q00534 whole entry): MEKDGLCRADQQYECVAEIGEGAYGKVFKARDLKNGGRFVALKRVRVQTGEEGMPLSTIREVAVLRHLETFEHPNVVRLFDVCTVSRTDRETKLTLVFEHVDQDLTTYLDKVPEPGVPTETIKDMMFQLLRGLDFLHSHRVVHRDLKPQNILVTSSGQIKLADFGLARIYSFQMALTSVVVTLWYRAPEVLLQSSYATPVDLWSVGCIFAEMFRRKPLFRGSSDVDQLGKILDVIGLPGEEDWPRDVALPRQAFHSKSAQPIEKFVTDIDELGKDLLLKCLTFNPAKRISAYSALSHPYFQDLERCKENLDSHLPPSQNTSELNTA
CDK6/Cyclin D3, sequence (P30281 whole entry partner): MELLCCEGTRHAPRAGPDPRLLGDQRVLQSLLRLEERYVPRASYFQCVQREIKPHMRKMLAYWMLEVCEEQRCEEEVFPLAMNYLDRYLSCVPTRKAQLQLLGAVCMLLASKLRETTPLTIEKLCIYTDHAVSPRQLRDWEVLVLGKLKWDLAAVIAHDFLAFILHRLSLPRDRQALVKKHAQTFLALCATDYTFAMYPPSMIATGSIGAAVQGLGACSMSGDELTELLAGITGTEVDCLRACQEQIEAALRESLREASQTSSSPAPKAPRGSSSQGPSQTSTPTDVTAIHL
Method in brief: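 Caliper microfluidic assay with 2 nM enzyme, 300 μM ATP and 1 μM phosphoacceptor peptide, incubated for 3 hr. Compounds were run as 12-point dose-response curves in singlicate.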

CDK4/Cyclin D1 = CDK4/Cyclin D1 (Homo sapiens, UniProt P11802); experiment: CDK4/Cyclin D1 kinase assay (Nanosyn, Caliper microfluidic); conditions: 12-point dose-response, ATP at Km (200 μM), 3 hr; Table 4
CDK4/Cyclin D1, sequence (P11802 whole entry): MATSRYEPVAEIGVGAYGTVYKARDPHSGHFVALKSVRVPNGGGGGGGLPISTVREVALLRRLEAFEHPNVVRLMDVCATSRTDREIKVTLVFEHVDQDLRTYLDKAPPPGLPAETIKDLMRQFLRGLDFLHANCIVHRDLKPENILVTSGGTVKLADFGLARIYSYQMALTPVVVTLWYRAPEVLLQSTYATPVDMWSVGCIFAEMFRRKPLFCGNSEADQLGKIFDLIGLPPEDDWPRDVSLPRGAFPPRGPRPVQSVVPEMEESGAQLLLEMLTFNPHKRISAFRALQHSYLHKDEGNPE
CDK4/Cyclin D1, sequence (P24385 whole entry partner): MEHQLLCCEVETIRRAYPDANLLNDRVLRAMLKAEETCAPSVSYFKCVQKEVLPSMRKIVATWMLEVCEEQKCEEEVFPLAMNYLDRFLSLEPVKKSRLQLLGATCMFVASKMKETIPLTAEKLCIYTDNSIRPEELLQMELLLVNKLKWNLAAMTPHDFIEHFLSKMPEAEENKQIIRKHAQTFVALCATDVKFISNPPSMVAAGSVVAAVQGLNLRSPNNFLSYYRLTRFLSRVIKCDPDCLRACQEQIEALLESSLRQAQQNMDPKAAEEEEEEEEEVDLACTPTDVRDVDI
Method in brief: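 Caliper microfluidic mobility-shift read-out, 12-point dose-response in singlicate. 1 nM enzyme, 200 μM ATP (Km), 1 μM peptide substrate, 3 hr incubation; staurosporine as reference.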

SMILES: N[C@H]1CC[C@@H](Nc2ncc3cc4n(c3n2)C2(CCCCC2)CN=C4)CC1 [Compound 55, (1s,4s)-N^1-(8′H-spiro[cyclohexane-1,9′-pyrazino[1′,2′:1,5]pyrrolo[2,3-d]pyrimidin]-2′-yl)cyclohexane-1,4-diamine]
- IC50 (CDK2/Cyclin A): 810 nM
- IC50 (CDK5/p35): 1700 nM
- IC50 (CDK2/Cyclin E): 330 nM
- IC50 (CDK5/p25): 2000 nM
- IC50 (CDK3/Cyclin E): 460 nM
- IC50 (CDK7/Cyclin H): 120 nM
- IC50 (CDK9/Cyclin T): 22 nM
- IC50 (CDK1/Cyclin B1): 1400 nM
- IC50 (CDK6/Cyclin D3): 680 nM
- IC50 (CDK4/Cyclin D1): 92 nM

SMILES: O=C1NCC2(CCCCC2)n2c1cc1cnc(N[C@@H]3C[C@@H](O)CNC3=O)nc12 [Compound 8, 2′-(((3R,5R)-5-hydroxy-2-oxopiperidin-3-yl)amino)-7′,8′-dihydro-6′H-spiro[cyclohexane-1,9′-pyrazino[1′,2′:1,5]pyrrolo[2,3-d]pyrimidin]-6′-one]
- IC50 (CDK2/Cyclin A): 11000 nM
- IC50 (CDK5/p35): 26000 nM
- IC50 (CDK2/Cyclin E): 24000 nM
- IC50 (CDK5/p25): 25000 nM
- IC50 (CDK3/Cyclin E): 18000 nM
- IC50 (CDK7/Cyclin H): 7200 nM
- IC50 (CDK9/Cyclin T): 440 nM
- IC50 (CDK1/Cyclin B1): 27000 nM
- IC50 (CDK6/Cyclin D3): 530 nM
- IC50 (CDK4/Cyclin D1): 100 nM

SMILES: O=C1CC[C@H](Nc2ncc3cc4n(c3n2)C2(CCCCC2)CNC4=O)CN1 [Compound 24, (S)-2′-((6-oxopiperidin-3-yl)amino)-7′,8′-dihydro-6′H-spiro[cyclohexane-1,9′-pyrazino[1′,2′:1,5]pyrrolo[2,3-d]pyrimidin]-6′-one]
- IC50 (CDK2/Cyclin A): 220 nM
- IC50 (CDK5/p35): 330 nM
- IC50 (CDK2/Cyclin E): 240 nM
- IC50 (CDK5/p25): 260 nM
- IC50 (CDK3/Cyclin E): 290 nM
- IC50 (CDK7/Cyclin H): 470 nM
- IC50 (CDK9/Cyclin T): 25 nM
- IC50 (CDK1/Cyclin B1): 560 nM
- IC50 (CDK6/Cyclin D3): 1000 nM
- IC50 (CDK4/Cyclin D1): 250 nM
